{"source": "patent US7232805B2", "about": "“Cobalamin conjugates for anti-tumor therapy” (Inflabloc Pharmaceuticals, Inc., priority 2003, dated 2007)", "key": {"[1]": {"test_system": "MX-1 human breast carcinoma xenograft", "assay": "tumor growth delay, MX-1 xenograft, single-cycle dosing (Example 3)", "details": "3 mg/kg/day x 5 days intravenous", "procedure": "Test articles were administered on the day of pair matching, Day 1.\nThe upper limit of acceptability is 20% weight loss."}, "[2]": {"assay": "systemic toxicity / MTD of free doxorubicin versus conjugate on a molar basis (separate study)", "type": "in vivo, mice"}, "[3]": {"test_system": "MX-1 human breast carcinoma xenograft", "assay": "tumor growth delay, MX-1 xenograft, two-cycle dosing (Example 11)", "details": "2-cycle", "quoted_text": "The following procedure was used to investigate the tumor growth delay effects of the conjugate, particularly for the treatment of MX-1 human breast carcinoma xenograft in athymic mice using a two-cycle dosing regimen. Female nude Harlan mice are implanted subcutaneously with 1 mm^3 MX 1 solid tumor fragments in the flank. During the pre-dose phase of implantation and growth, tumors are initially monitored twice weekly, and then daily as the neoplasms approach the desired size of 80-120 mg. When the majority of tumors reached the targeted weight range (80-120 mg), mice are pair-matched into 5 treatment groups of 10 mice each. For purposes of this illustrationon the effect of 2-cycles of treatment, data from 3 groups are shown: no treatment, 3 mg/kg/day (days 1-5, 21-25) intravenous Doxorubicin and 24 mg/kg/day (days 1-5, 21-25) intravenous bioconjugate. Test article administration began on this day, referred to as Day 1. The tumor growth delay endpoint is reached when the tumor on the mouse reaches 1.5 gm weight estimated by the formula: Tumor weight (mg)=w^2×l/2×1 mg/mm^3, where w=width (mm) and l=length (mm) of the tumor. The median time to endpoint is calculated for each treatment group."}}}
{"smiles": "COc1cccc2c1C(=O)c1c(O)c3c(c(O)c1C2=O)C[C@@](O)(C(=O)CO)C[C@@H]3O[C@H]1C[C@H](N)[C@H](O)[C@H](C)O1", "note": "[Doxorubicin, doxorubicin, reference compound]", "values": [{"measurement": "median delay in tumor growth (median time to endpoint, tumor 1.5 gm)", "setting": "[1]", "result": 39.5, "unit": "days"}, {"measurement": "treatment or nontreatment related deaths", "setting": "[1]", "result": "no other treatment or nontreatment related deaths"}, {"measurement": "long-term, tumor-free survivors", "setting": "[1]; 10 mice", "result": "no long-term, tumor-free survivors"}, {"measurement": "partial or complete tumor regressions", "setting": "[1]; 10 mice", "result": "no partial or complete tumor regressions"}, {"measurement": "lethality at the same high molar dose", "setting": "[2]; free doxorubicin at the same high molar dose as the conjugate", "result": "mice were killed by the free doxorubicin"}, {"measurement": "MTD lower than for the conjugate on a molar basis", "setting": "[2]; separate study", "result": "at least 2.3 times"}, {"measurement": "time to endpoint longer than control mice", "setting": "[3]; 3 mg/kg/day (days 1-5, 21-25) intravenous", "result": "at least 44 days"}, {"measurement": "treatment or nontreatment related deaths", "setting": "[3]; 3 mg/kg/day intravenous", "result": "no treatment or nontreatment related deaths"}, {"measurement": "long-term, tumor-free survivors", "setting": "[3]; 3 mg/kg/day intravenous, at 71 days", "result": "significant percentage"}]}
